In patent US11813306B2, “Cyclic tetramer compounds as proprotein convertase subtilisin/kexin type 9 (PCSK9) inhibitors for the treatment of metabolic disorders” (NOVARTIS AG, priority 2018, dated 2023) one finds ring closure, yield of all isomers, IC50 and Max % inhibition data, which are given here for 8 compounds.

For data set [1] the following is noted: amide bond, DCM.
The target of another data set is human PCSK9 (Homo sapiens, UniProt Q8NBP7). Kind of data set: PCSK9 ligand binding assay (TR-FRET): interference with binding of human PCSK9 to human LDLR. As to conditions: for IC50: Human PCSK9 Alexa Fluor 647 / Human LDLR extracellular domain-Europium Kryptate; for Max % inhibition: efficacy (Amax), 100% = 1 uM unlabeled human PCSK9, 0% = DMSO. Put shortly: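 Read-out was TR-FRET ratio (665 nm over 615 nm, 330 nm excitation) between Alexa Fluor 647-human PCSK9 (16 nM added) and Europium Kryptate-human LDLR ectodomain (4 nM added). Compound and PCSK9 were mixed 30 min before LDLR, then incubated 2 h. Inhibition was normalised to DMSO and unlabelled-PCSK9 controls, giving IC50 and Amax.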
human PCSK9, sequence (Q8NBP7 153-692): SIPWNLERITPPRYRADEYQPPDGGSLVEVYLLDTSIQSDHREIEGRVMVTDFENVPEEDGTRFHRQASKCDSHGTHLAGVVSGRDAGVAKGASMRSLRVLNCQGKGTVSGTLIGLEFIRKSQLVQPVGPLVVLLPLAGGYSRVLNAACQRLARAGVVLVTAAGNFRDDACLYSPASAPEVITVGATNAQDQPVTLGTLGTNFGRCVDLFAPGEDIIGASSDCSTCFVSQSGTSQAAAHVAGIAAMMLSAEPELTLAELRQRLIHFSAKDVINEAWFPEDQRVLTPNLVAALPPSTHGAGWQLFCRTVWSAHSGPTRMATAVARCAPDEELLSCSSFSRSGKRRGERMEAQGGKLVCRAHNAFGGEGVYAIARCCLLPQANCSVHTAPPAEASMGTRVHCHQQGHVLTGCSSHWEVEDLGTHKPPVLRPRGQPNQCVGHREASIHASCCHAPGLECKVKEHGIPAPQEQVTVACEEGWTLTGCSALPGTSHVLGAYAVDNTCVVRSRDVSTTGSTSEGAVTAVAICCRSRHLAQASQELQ
human PCSK9, sequence (Q8NBP7 31-152 partner limits assumed): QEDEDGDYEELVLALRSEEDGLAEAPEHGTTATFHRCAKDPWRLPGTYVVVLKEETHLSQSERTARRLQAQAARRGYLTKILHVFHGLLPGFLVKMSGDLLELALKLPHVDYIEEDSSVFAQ

Where a name gives a salt, the structure may show the parent alone. Read-outs that look alike come from different tables or passages of the source.

In turn, `COC[C@@H]1NC(=O)[C@H](C)N(Cc2c(F)cc(Cl)cc2Oc2ccc(-c3cnc(CN(C(=O)OC(C)(C)C)C(C)(C)C)n3C)cc2)C(=O)C[C@@H](C2CC(F)(F)C2)C(=O)N2CCC[C@@](Cc3ccc(Cl)cc3)(C2)N(C)C1=O` registered a ring closure, yield of all isomers in data set [1] (from COC[C@H](NC(=O)[C@H](C)NCc1c(F)cc(Cl)cc1Oc1ccc(-c2cnc(CN(C(=O)OC(C)(C)C)C(C)(C)C)n2C)cc1)C(=O)N(C)[C@@]1(Cc2ccc(Cl)cc2)CCCN(C(=O)[C@@H](CC(=O)O)C2CC(F)(F)C2)C1, HATU, 1.82 mM, 42.0 °C) of 86%.
For `C[C@H]1C(=O)N2[C@@H](COC2(C)C)C(=O)N[C@@]2(Cc3ccc(Cl)cc3)CCCN(C2)C(=O)[C@H](Cc2ccccc2)CC(=O)N1Cc1ccc(Cl)cc1Oc1ccc(-c2cnc(CN(C)C)n2C)cc1`, the ring closure, yield of all isomers in data set [1] (from C[C@H](NCc1ccc(Cl)cc1Oc1ccc(-c2cnc(CN(C)C)n2C)cc1)C(=O)N1[C@H](C(=O)N[C@@]2(Cc3ccc(Cl)cc3)CCCN(C(=O)[C@@H](CC(=O)O)Cc3ccccc3)C2)COC1(C)C, HATU, 1.04 mM, 45.0 °C) is 69%.
`C[C@H]1C(=O)N[C@@H](CO)C(=O)N(C)[C@@]2(Cc3ccc(Cl)cc3)CCCN(C2)C(=O)[C@H](Cc2cccc[n+]2[O-])CC(=O)N1Cc1c(F)cc(Cl)cc1Oc1ccc(-c2cnc(CN(C)C)n2C)cc1` displayed a ring closure, yield of all isomers in data set [1] (from C[C@H](NCc1c(F)cc(Cl)cc1Oc1ccc(-c2cnc(CN(C)C)n2C)cc1)C(=O)N[C@@H](CO)C(=O)N(C)[C@@]1(Cc2ccc(Cl)cc2)CCCN(C(=O)[C@@H](CC(=O)O)Cc2cccc[n+]2[O-])C1, HATU/HOAt/2,6-lutidine, 1.08 mM, 48.0 °C, 4.0 h) of 98.8%.
In the case of `C[C@H]1C(=O)N[C@@H](CO)C(=O)N(C)[C@@]2(Cc3ccc(Cl)cc3)CCCN(C2)C(=O)[C@H](Cc2cccc[n+]2[O-])CC(=O)N1Cc1ccc(Cl)cc1Oc1ccc(-c2cnc(CN(C)C)n2C)cc1`, the ring closure, yield of all isomers in data set [1] (from C[C@H](NCc1ccc(Cl)cc1Oc1ccc(-c2cnc(CN(C)C)n2C)cc1)C(=O)N[C@@H](CO)C(=O)N(C)[C@@]1(Cc2ccc(Cl)cc2)CCCN(C(=O)[C@@H](CC(=O)O)Cc2cccc[n+]2[O-])C1, HATU, 0.83 mM, 48.0 °C, 4.0 h) was 100%.
Take `C[C@H]1C(=O)N[C@@H](CO)C(=O)N[C@@]2(Cc3ccc(Cl)cc3)CCCN(C2)C(=O)[C@H](Cc2cccc[n+]2[O-])CC(=O)N1Cc1ccc(Cl)cc1Oc1ccc(-c2cnc(CN3CCCC3)n2C)cc1`: in data set [1] (from C[C@H](NCc1ccc(Cl)cc1Oc1ccc(-c2cnc(CN3CCCC3)n2C)cc1)C(=O)N1[C@H](C(=O)N[C@@]2(Cc3ccc(Cl)cc3)CCCN(C(=O)[C@@H](CC(=O)O)Cc3cccc[n+]3[O-])C2)COC1(C)C, HATU, 1.72 mM, 48.0 °C, 19.0 h, 2 steps), the ring closure, yield of all isomers worked out at 33.3%.
In data set [1] (from COC[C@H](NC(=O)[C@H](C)NCc1c(F)cc(Cl)cc1Oc1ccc(-c2cnc(CN(C)C)n2C)cc1)C(=O)N(C)[C@@]1(Cc2ccc(Cl)cc2)CCCN(C(=O)[C@@H](CC(=O)O)Cc2cccc(C)n2)C1, HATU/HOAt/2,6-lutidine, 1.59 mM, 48.0 °C, 16.0 h), `COC[C@@H]1NC(=O)[C@H](C)N(Cc2c(F)cc(Cl)cc2Oc2ccc(-c3cnc(CN(C)C)n3C)cc2)C(=O)C[C@@H](Cc2cccc(C)n2)C(=O)N2CCC[C@@](Cc3ccc(Cl)cc3)(C2)N(C)C1=O` [Compound 13, (3R,7S,10S,13R)-6-(4-chloro-2-(4-(2-((dimethylamino)methyl)-1-methyl-1H-imidazol-5-yl)phenoxy)-6-fluorobenzyl)-13-(4-chlorobenzyl)-10-(methoxymethyl)-7,12-dimethyl-3-((6-methylpyridin-2-yl)methyl)-1,6,9,12-tetraazabicyclo[11.3.1]heptadecane-2,5,8,11-tetraone] yielded a ring closure, yield of all isomers of 33%. Further, on human PCSK9, the concentration for half-maximal inhibition (IC50) worked out at 0.549 nM and the Max % inhibition turned out to be 112.1%.
`CNCc1ncc(-c2ccc(Oc3cc(Cl)cc(F)c3CN3C(=O)C[C@@H](CC(F)(F)F)C(=O)N4CCC[C@@](Cc5ccc(Cl)cc5)(C4)N(C)C(=O)[C@H](CO)NC(=O)[C@@H]3C)cc2)n1C` [Compound 177, (3S,7S,10S,13R)-6-(4-chloro-2-fluoro-6-(4-(1-methyl-2-((methylamino)methyl)-1H-imidazol-5-yl)phenoxy)benzyl)-13-(4-chlorobenzyl)-10-(hydroxymethyl)-7,12-dimethyl-3-(2,2,2-trifluoroethyl)-1,6,9,12-tetraazabicyclo[11.3.1]heptadecane-2,5,8,11-tetraone trifluoroacetate]: at human PCSK9, the IC50 was 52.7 nM and the Max % inhibition came to 108.8%.
In the case of `CN(C)Cc1ncc(-c2ccc(Oc3cc(Cl)ccc3CN3C(=O)C[C@@H](Cc4ccccc4)C(=O)N4CCC[C@@](Cc5ccc(Cl)cc5)(C4)NC(=O)[C@H](CO)NC(=O)[C@@H]3CCN)cc2)n1C` [Compound 178, (3R,7S,10S,13R)-7-(2-aminoethyl)-3-benzyl-6-(4-chloro-2-(4-(2-((dimethylamino)methyl)-1-methyl-1H-imidazol-5-yl)phenoxy)benzyl)-13-(4-chlorobenzyl)-10-(hydroxymethyl)-1,6,9,12-tetraazabicyclo[11.3.1]heptadecane-2,5,8,11-tetraone], on human PCSK9, the IC50 is 2.66 nM and the Max % inhibition turned out to be 104.3%.
